Assay results as given in patent US8952024B2, “Herbicidal pyrimidone derivatives” (E I du Pont de Nemours and Company, priority 2009, dated 2015).

Key:
Type in all cases: in vivo
[1] = test system: barnyardgrass (Echinochloa crus-galli); assay: Test A pre-/postemergence plant response
Outline: (§1)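 Injury scores (0, no effect; 100, complete control) come from visual comparison with untreated controls roughly ten days post-treatment. Test chemicals in a surfactant-containing non-phytotoxic solvent were applied as a directed soil spray preemergence and to one- to two-leaf seedlings postemergence.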

corn (Zea mays) = assay: Test A pre-/postemergence plant response
Outline: as §1

[2] = test system: giant foxtail (Setaria faberii); assay: Test A pre-/postemergence plant response
Outline: as §1

[3] = test system: large crabgrass (Digitaria sanguinalis); assay: Test A pre-/postemergence plant response
Outline: as §1

[4] = test system: morningglory (Ipomoea spp.); assay: Test A pre-/postemergence plant response
Outline: as §1

[5] = test system: pigweed (Amaranthus retroflexus); assay: Test A pre-/postemergence plant response
Outline: as §1

[6] = test system: velvetleaf (Abutilon theophrasti); assay: Test A pre-/postemergence plant response
Outline: as §1

[7] = test system: wheat (Triticum aestivum); assay: Test A pre-/postemergence plant response
Outline: as §1

[8] = test system: barnyardgrass (Echinochloa crus-galli); assay: Test B flooded paddy test; details: for Plant response rating, Flood, Barnyardgrass: 250 g ai/ha, flooded paddy test, visual rating on 0 to 100 scale (0 no effect, 100 complete control) after 13 to 15 days; for Plant response rating, Barnyardgrass: Flood (flooded paddy test), 13 to 15 days; for Barnyardgrass plant response rating: Flood, 31 g ai/ha, scale 0 to 100 (0 no effect, 100 complete control)
Outline: (§2)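 2-leaf seedlings; pots flooded 3 cm over soil at treatment; cpd dosed into floodwater, depth kept constant. Greenhouse 13–15 d. Visual rating vs untreated controls, 0 = no effect, 100 = complete control.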

[9] = test system: ducksalad (Heteranthera limosa); assay: Test B flooded paddy test; details: for Plant response rating, Flood, Ducksalad: 250 g ai/ha, flooded paddy test, visual rating on 0 to 100 scale (0 no effect, 100 complete control) after 13 to 15 days; for Plant response rating, Ducksalad: Flood (flooded paddy test), 13 to 15 days; for Ducksalad plant response rating: Flood, 31 g ai/ha, scale 0 to 100 (0 no effect, 100 complete control)
Outline: as §2

rice (Oryza sativa) = assay: Test B flooded paddy test; details: for Plant response rating, Flood, Rice: 250 g ai/ha, flooded paddy test, visual rating on 0 to 100 scale (0 no effect, 100 complete control) after 13 to 15 days; for Plant response rating, Rice: Flood (flooded paddy test), 13 to 15 days; for Rice plant response rating: Flood, 31 g ai/ha, scale 0 to 100 (0 no effect, 100 complete control)
Outline: as §2

[10] = test system: umbrella sedge (Cyperus difformis); assay: Test B flooded paddy test; details: for Plant response rating, Flood, Sedge, Umbrella: 250 g ai/ha, flooded paddy test, visual rating on 0 to 100 scale (0 no effect, 100 complete control) after 13 to 15 days; for Plant response rating, Sedge, Umbrella: Flood (flooded paddy test), 13 to 15 days; for Sedge, Umbrella plant response rating: Flood, 31 g ai/ha, scale 0 to 100 (0 no effect, 100 complete control)
Outline: as §2

[11] = Postemergence, 125 g ai/ha, 0 to 100 scale where 0 is no effect and 100 is complete control
[12] = Postemergence, 500 g ai/ha, 0 to 100 scale, 0 = no effect, 100 = complete control, approx. ten days
[13] = Preemergence, 125 g ai/ha, 0 to 100 scale, 0 = no effect, 100 = complete control
[14] = Preemergence, 500 g ai/ha, visual injury, 0 to 100 scale (0 no effect, 100 complete control), approx. ten days
[15] = 62 g ai/ha, scale of 0 to 100 where 0 is no effect and 100 is complete control
[16] = 125 g ai/ha, scale 0 to 100, 0 is no effect, 100 is complete control
[17] = Preemergence, 500 g ai/ha, 0 to 100 scale, 0 = no effect, 100 = complete control

CCCCCn1c(-c2ccccc2)ncc(C(=O)C2=C(O)CCCC2=O)c1=O [Compound 89]
80: Plant response rating, Barnyardgrass [1, 14]
100: Plant response rating, Crabgrass, Large [3, 12] | Plant response rating, Morningglory [4, 11] | Plant response rating, Morningglory [4, 12] | Plant response rating, Pigweed [5, 11] | Plant response rating, Pigweed [5, 12] | Plant response rating, Pigweed [5, 14] | Plant response rating, Velvetleaf [6, 11] | Plant response rating, Velvetleaf [6, 12] | Plant response rating, Velvetleaf [6, 14] | Plant response rating, Flood, Ducksalad [9] | Plant response rating, Ducksalad [9, 16]
0: Plant response rating, Corn (corn (Zea mays); [11]) | Plant response rating, Corn (corn (Zea mays); [13]) | Plant response rating, Corn (corn (Zea mays); [14]) | Plant response rating, Morningglory [4, 13] | Plant response rating, Wheat [7, 11] | Plant response rating, Wheat [7, 13] | Plant response rating, Rice (rice (Oryza sativa); [15]) | Plant response rating, Rice (rice (Oryza sativa); [16]) | Rice plant response rating (rice (Oryza sativa))
15: Plant response rating, Flood, Rice (rice (Oryza sativa))
85: Plant response rating, Flood, Sedge, Umbrella [10] | Plant response rating, Sedge, Umbrella [10, 15] | Plant response rating, Sedge, Umbrella [10, 16]
30: Plant response rating, Wheat [7, 14] | Plant response rating, Barnyardgrass [8, 16] | Sedge, Umbrella plant response rating [10]
90: Plant response rating, Barnyardgrass [1, 11] | Plant response rating, Barnyardgrass [1, 12] | Plant response rating, Foxtail, Giant [2, 12] | Plant response rating, Crabgrass, Large [3, 11] | Plant response rating, Crabgrass, Large [3, 14] | Plant response rating, Pigweed [5, 13] | Plant response rating, Ducksalad [9, 15]
45: Ducksalad plant response rating [9]
70: Plant response rating, Foxtail, Giant [2, 14] | Plant response rating, Morningglory [4, 14] | Plant response rating, Velvetleaf [6, 13]
40: Plant response rating, Flood, Barnyardgrass [8]
20: Plant response rating, Barnyardgrass [1, 13] | Plant response rating, Foxtail, Giant [2, 13] | Plant response rating, Wheat [7, 12] | Plant response rating, Barnyardgrass [8, 15] | Barnyardgrass plant response rating [8]
10: Plant response rating, Corn (corn (Zea mays); [12])
60: Plant response rating, Foxtail, Giant [2, 11] | Plant response rating, Crabgrass, Large [3, 13]

CCCn1c(-c2cc(F)cc(F)c2)ncc(C(=O)C2=C(O)CCCC2=O)c1=O [Compound 152]
80: Plant response rating, Foxtail, Giant [2, 11] | Plant response rating, Morningglory [4, 14]
30: Plant response rating, Corn (corn (Zea mays); [14]) | Plant response rating, Rice (rice (Oryza sativa); [16])
0: Plant response rating, Corn (corn (Zea mays); [11]) | Plant response rating, Corn (corn (Zea mays); [13]) | Ducksalad plant response rating [9] | Plant response rating, Sedge, Umbrella [10, 15] | Sedge, Umbrella plant response rating [10]
100: Plant response rating, Barnyardgrass [1, 11] | Plant response rating, Barnyardgrass [1, 12] | Plant response rating, Barnyardgrass [1, 14] | Plant response rating, Foxtail, Giant [2, 12] | Plant response rating, Crabgrass, Large [3, 12] | Plant response rating, Crabgrass, Large [3, 14] | Plant response rating, Morningglory [4, 11] | Plant response rating, Morningglory [4, 12] | Plant response rating, Pigweed [5, 11] | Plant response rating, Pigweed [5, 12] | Plant response rating, Pigweed [5, 13] | Plant response rating, Pigweed [5, 14] | Plant response rating, Velvetleaf [6, 11] | Plant response rating, Velvetleaf [6, 12] | Plant response rating, Velvetleaf [6, 17] | Plant response rating, Flood, Ducksalad [9] | Plant response rating, Ducksalad [9, 16] | Plant response rating, Flood, Sedge, Umbrella [10]
15: Barnyardgrass plant response rating [8]
70: Plant response rating, Wheat [7, 12]
20: Plant response rating, Wheat [7, 11] | Plant response rating, Wheat [7, 13] | Plant response rating, Rice (rice (Oryza sativa); [15]) | Rice plant response rating (rice (Oryza sativa))
50: Plant response rating, Barnyardgrass [1, 13] | Plant response rating, Corn (corn (Zea mays); [12]) | Plant response rating, Wheat [7, 17] | Plant response rating, Barnyardgrass [8, 16]
90: Plant response rating, Foxtail, Giant [2, 14] | Plant response rating, Crabgrass, Large [3, 11] | Plant response rating, Crabgrass, Large [3, 13] | Plant response rating, Ducksalad [9, 15]
75: Plant response rating, Flood, Barnyardgrass [8]
85: Plant response rating, Sedge, Umbrella [10, 16]
60: Plant response rating, Foxtail, Giant [2, 13] | Plant response rating, Morningglory [4, 13] | Plant response rating, Velvetleaf [6, 13] | Plant response rating, Flood, Rice (rice (Oryza sativa))
25: Plant response rating, Barnyardgrass [8, 15]
